Measurements published in ChEMBL document CHEMBL6109114, “Design, synthesis, and biological evaluation of 4-(2-fluorophenoxy)pyridine derivatives as novel FLT3-ITD inhibitors” (Eur J Med Chem, 2025).

What was measured:
MOLM-13 [1] = experiment: Induction of cell cycle arrest in human MOLM-13 cells assessed as accumulation of cells at S phase at 0.1 uM incubated for 48 hrs (reference value: 41.6%); format: functional
MOLM-13 [2] = experiment: Induction of cell cycle arrest in human MOLM-13 cells assessed as accumulation of cells at G1 phase at 0.3 uM incubated for 48 hrs (reference value: 40.3%); format: functional
[3] = Permeability of the compound incubated for 4 hrs by PAMPA method; format: ADME; settings: read-out: permeability
[4] = AUC (0 to infinity) in mouse at 10 mg/kg, po; format: ADME, organism-based; settings: in vivo
[5] = AUC (0 to t) in mouse at 5 mg/kg, iv; format: ADME, organism-based; settings: in vivo
[6] = biological target: Mast/stem cell growth factor receptor Kit (Homo sapiens) (UniProt P10721); experiment: Inhibition of human c-Kit assessed as remaining activity at 1 uM by Eurofins-DiscoverX assay relative to control
Jurkat = experiment: Antiproliferative activity against non-FLT3 expressing human Jurkat cells assessed as inhibition of cell growth measured after 3 days by celltiter-glo luminescent cell viability assay; format: functional, cell-based; settings: 72 h
[7] = Clearance in mouse at 5 mg/kg, iv; format: ADME, organism-based; settings: in vivo
CYP2C9 = CYP2C9 (Homo sapiens, UniProt P11712); experiment: Inhibition of CYP2C9 in human liver microsomes using diclofenac as substrate at 10 uM incubated for 10 mins in presence of NADPH by LC-MS/MS analysis relative to control; format: ADME, Microsome; settings: probe diclofenac
MOLM-13 [8] = experiment: Inhibition of STAT5 phosphorylation in human MOLM-13 cells measured after 2 hrs by Western blot analysis; format: cell-based; settings: dose 0.01-1 µM
[9] = biological target: Vascular endothelial growth factor receptor 2 (Homo sapiens, UniProt P35968); experiment: Inhibition of VEGFR2 (unknown origin) using Fluorescein-Poly GT as substrate preincubated for 10 mins followed by substrate addition and measured after 30 mins in presence of ATP by mobility shift assay
[10] = biological target: Receptor-type tyrosine-protein kinase FLT3 (Homo sapiens) (UniProt P36888); experiment: Inhibition of FLT3 phosphorylation in human MOLM-13 cells at 0.2 uM measured after 2 hrs by Western blot analysis relative to control; format: cell-based
MOLM-13 [11] = experiment: Induction of apoptosis in human MOLM-13 cells assessed as late apoptotic cells at 0.1 uM incubated for 48 hrs by Annexin V-FITC/PI staining based flow cytometry analysis (reference value: 3.10%); format: functional
[12] = MRT (0 to t) in mouse at 10 mg/kg, po; format: ADME, organism-based; settings: in vivo
MOLM-13 [13] = experiment: Induction of apoptosis in human MOLM-13 cells incubated for 48 hrs by Annexin V-FITC/PI staining based flow cytometry analysis; format: functional, cell-based; settings: dose 0.1-1 µM
MOLM-13 [14] = experiment: Induction of apoptosis in human MOLM-13 cells assessed as necrotic cells at 1 uM incubated for 48 hrs by Annexin V-FITC/PI staining based flow cytometry analysis (reference value: 0.077%); format: functional
MOLM-13 [15] = experiment: Induction of cell cycle arrest in human MOLM-13 cells assessed as accumulation of cells at G2 phase at 1 uM incubated for 48 hrs (reference value: […]); format: functional
[16] = biological target: Cyclin-dependent kinase 5/CDK5 activator 1 (Homo sapiens) (UniProt Q00535+Q15078); experiment: Inhibition of human CDK5/p25 assessed as remaining activity at 1 uM by Eurofins-DiscoverX assay relative to control; format: protein-complex assay
BaF3 = experiment: Antiproliferative activity against mouse BaF3 cells harbouring VEGFR2 assessed as inhibition of cell growth measured after 3 days by celltiter-glo luminescent cell viability assay; format: functional, cell-based; settings: BaF3, 72 h
MOLM-13 [17] = experiment: Induction of cell cycle arrest in human MOLM-13 cells assessed as accumulation of cells at G2 phase at 0.3 uM incubated for 48 hrs (reference value: […]); format: functional
MOLM-13 [18] = experiment: Induction of cell cycle arrest in human MOLM-13 cells assessed as accumulation of cells at G1 phase at 1 uM incubated for 48 hrs (reference value: 40.3%); format: functional
MOLM-13 [19] = experiment: Induction of apoptosis in human MOLM-13 cells assessed as late apoptotic cells at 0.3 uM incubated for 48 hrs by Annexin V-FITC/PI staining based flow cytometry analysis (reference value: 3.10%); format: functional
[20] = MRT (0 to t) in mouse at 5 mg/kg, iv; format: ADME, organism-based; settings: in vivo
MOLM-13 [21] = experiment: Induction of apoptosis in human MOLM-13 cells assessed as early apoptotic cells at 0.3 uM incubated for 48 hrs by Annexin V-FITC/PI staining based flow cytometry analysis (reference value: 4.93%); format: functional
[22] = biological target: Receptor-type tyrosine-protein kinase FLT3 (Homo sapiens, UniProt P36888); experiment: Inhibition of FLT3 (unknown origin) using Fluorescein-Poly GT as substrate preincubated for 10 mins followed by substrate addition and measured after 30 mins in presence of ATP by mobility shift assay
CYP1A2 = CYP1A2 (Homo sapiens, UniProt P05177); experiment: Inhibition of CYP1A2 in human liver microsomes using phenacetin as substrate at 10 uM incubated for 10 mins in presence of NADPH by LC-MS/MS analysis relative to control; format: ADME, Microsome; settings: probe phenacetin
[23] = biological target: Receptor-type tyrosine-protein kinase FLT3 (Homo sapiens, UniProt P36888, ITD); experiment: Inhibition of FLT3 ITD mutant (unknown origin) using Fluorescein-Poly GT as substrate preincubated for 10 mins followed by substrate addition and measured after 30 mins in presence of ATP by mobility shift assay
[24] = Antiproliferative activity against human PBMC cells assessed as inhibition of cell growth measured after 3 days by celltiter-glo luminescent cell viability assay; format: toxicity, cell-based
[25] = Metabolic stability in Sprague-Dawley rat liver microsomes assessed as intrinsic clearance at 1 uM measured up to 60 mins in presence of NADPH regenerating system by LC-MS/MS analysis; format: ADME, Microsome; settings: read-out: CLH
MOLM-13 [26] = experiment: Induction of apoptosis in human MOLM-13 cells assessed as viable cells at 1 uM incubated for 48 hrs by Annexin V-FITC/PI staining based flow cytometry analysis (reference value: 91.9%); format: functional; settings: read-out: Activity
[27] = biological target: Vascular endothelial growth factor receptor 3 (Homo sapiens, UniProt P35916); experiment: Inhibition of FLT4 (unknown origin) using Fluorescein-Poly GT as substrate preincubated for 10 mins followed by substrate addition and measured after 30 mins in presence of ATP by mobility shift assay
MOLM-13 [28] = experiment: Induction of apoptosis in human MOLM-13 cells assessed as late apoptotic cells at 1 uM incubated for 48 hrs by Annexin V-FITC/PI staining based flow cytometry analysis (reference value: 3.10%); format: functional
[29] = Metabolic stability in Beagle dog liver microsomes assessed as parent compound remaining at 1 uM measured after 60 mins by LC-MS/MS analysis; format: ADME, Canis lupus familiaris, Microsome; settings: read-out: Stability
MOLM-14 = experiment: Antiproliferative activity against human MOLM-14 cells harbouring FLT3-ITD assessed as inhibition of cell growth measured after 3 days by celltiter-glo luminescent cell viability assay; format: functional, cell-based; settings: MOLM-14, 72 h
[30] = biological target: Cyclin-dependent kinase 1/cyclin B1 (Homo sapiens) (UniProt P06493+P14635); experiment: Inhibition of human CDK1/CyclinB1 assessed as remaining activity at 1 uM by Eurofins-DiscoverX assay relative to control; format: protein-complex assay
[31] = Oral bioavailability in mouse at 10 mg/kg; format: ADME, organism-based; settings: in vivo

Vascular endothelial growth factor receptor 2, sequence (P35968 whole entry): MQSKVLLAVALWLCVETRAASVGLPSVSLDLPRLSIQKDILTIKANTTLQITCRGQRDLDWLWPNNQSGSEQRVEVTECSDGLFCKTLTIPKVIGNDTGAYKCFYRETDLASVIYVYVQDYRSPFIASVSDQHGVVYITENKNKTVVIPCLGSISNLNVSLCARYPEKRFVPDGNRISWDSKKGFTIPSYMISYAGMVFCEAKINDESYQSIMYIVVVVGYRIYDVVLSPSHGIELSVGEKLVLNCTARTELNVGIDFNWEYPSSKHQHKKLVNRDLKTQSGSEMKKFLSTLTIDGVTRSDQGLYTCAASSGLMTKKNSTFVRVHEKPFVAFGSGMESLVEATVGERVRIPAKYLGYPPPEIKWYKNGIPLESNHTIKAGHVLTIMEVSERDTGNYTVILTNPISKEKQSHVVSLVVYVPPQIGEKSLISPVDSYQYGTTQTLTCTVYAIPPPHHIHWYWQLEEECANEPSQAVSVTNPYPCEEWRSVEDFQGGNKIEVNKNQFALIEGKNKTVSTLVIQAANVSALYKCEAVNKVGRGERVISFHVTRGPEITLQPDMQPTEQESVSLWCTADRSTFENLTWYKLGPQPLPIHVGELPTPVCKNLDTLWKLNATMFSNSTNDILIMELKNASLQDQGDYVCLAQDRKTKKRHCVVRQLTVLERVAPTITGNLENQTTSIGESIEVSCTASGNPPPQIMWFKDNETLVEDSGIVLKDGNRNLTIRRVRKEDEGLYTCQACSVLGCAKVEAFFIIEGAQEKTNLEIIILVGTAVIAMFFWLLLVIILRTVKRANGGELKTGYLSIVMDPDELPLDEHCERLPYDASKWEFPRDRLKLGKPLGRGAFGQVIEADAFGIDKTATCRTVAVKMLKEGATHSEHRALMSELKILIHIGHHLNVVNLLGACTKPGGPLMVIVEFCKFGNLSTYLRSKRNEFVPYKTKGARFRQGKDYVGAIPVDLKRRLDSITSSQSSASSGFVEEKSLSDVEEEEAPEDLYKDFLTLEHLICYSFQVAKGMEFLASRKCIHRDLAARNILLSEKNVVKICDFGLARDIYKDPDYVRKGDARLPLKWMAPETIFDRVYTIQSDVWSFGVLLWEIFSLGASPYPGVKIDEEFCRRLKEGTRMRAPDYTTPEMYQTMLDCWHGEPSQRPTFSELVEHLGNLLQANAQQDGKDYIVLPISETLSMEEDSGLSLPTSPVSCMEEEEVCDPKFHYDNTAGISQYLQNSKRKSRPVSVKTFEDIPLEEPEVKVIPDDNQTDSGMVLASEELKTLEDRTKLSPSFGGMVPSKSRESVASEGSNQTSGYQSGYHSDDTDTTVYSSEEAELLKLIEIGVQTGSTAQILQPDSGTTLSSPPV
Receptor-type tyrosine-protein kinase FLT3 (Homo sapiens, UniProt P36888), sequence (P36888 whole entry): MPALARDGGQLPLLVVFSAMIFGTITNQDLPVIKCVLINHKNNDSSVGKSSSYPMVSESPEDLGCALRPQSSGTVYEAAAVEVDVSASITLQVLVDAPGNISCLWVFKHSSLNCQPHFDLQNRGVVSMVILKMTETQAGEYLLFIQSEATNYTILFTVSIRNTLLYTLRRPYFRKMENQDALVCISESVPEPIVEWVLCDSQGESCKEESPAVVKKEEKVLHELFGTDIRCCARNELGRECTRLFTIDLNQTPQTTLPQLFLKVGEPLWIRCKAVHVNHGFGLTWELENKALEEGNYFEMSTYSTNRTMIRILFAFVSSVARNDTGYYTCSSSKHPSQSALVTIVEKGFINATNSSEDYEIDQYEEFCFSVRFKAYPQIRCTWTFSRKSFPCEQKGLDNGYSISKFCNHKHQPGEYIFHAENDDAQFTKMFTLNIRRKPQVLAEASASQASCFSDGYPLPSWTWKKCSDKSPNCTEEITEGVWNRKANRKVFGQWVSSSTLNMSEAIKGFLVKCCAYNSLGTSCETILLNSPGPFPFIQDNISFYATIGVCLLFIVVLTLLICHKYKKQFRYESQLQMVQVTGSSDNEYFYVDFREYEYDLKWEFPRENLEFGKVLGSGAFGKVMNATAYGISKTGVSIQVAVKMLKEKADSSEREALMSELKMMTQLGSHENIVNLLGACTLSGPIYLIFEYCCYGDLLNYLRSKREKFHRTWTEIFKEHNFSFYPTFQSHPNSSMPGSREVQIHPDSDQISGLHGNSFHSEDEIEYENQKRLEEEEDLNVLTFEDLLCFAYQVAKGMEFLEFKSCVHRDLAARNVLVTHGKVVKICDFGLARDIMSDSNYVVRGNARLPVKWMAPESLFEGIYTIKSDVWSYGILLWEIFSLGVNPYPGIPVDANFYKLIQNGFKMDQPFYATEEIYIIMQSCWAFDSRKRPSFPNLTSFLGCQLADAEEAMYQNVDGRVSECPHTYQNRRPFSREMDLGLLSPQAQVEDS
Receptor-type tyrosine-protein kinase FLT3 (Homo sapiens), sequence (P36888 whole entry): as above
Receptor-type tyrosine-protein kinase FLT3 (Homo sapiens, UniProt P36888, ITD), sequence (P36888 whole entry, looked up, stated change not applied): as the sequence (P36888 whole entry) above
Vascular endothelial growth factor receptor 3, sequence (P35916 whole entry): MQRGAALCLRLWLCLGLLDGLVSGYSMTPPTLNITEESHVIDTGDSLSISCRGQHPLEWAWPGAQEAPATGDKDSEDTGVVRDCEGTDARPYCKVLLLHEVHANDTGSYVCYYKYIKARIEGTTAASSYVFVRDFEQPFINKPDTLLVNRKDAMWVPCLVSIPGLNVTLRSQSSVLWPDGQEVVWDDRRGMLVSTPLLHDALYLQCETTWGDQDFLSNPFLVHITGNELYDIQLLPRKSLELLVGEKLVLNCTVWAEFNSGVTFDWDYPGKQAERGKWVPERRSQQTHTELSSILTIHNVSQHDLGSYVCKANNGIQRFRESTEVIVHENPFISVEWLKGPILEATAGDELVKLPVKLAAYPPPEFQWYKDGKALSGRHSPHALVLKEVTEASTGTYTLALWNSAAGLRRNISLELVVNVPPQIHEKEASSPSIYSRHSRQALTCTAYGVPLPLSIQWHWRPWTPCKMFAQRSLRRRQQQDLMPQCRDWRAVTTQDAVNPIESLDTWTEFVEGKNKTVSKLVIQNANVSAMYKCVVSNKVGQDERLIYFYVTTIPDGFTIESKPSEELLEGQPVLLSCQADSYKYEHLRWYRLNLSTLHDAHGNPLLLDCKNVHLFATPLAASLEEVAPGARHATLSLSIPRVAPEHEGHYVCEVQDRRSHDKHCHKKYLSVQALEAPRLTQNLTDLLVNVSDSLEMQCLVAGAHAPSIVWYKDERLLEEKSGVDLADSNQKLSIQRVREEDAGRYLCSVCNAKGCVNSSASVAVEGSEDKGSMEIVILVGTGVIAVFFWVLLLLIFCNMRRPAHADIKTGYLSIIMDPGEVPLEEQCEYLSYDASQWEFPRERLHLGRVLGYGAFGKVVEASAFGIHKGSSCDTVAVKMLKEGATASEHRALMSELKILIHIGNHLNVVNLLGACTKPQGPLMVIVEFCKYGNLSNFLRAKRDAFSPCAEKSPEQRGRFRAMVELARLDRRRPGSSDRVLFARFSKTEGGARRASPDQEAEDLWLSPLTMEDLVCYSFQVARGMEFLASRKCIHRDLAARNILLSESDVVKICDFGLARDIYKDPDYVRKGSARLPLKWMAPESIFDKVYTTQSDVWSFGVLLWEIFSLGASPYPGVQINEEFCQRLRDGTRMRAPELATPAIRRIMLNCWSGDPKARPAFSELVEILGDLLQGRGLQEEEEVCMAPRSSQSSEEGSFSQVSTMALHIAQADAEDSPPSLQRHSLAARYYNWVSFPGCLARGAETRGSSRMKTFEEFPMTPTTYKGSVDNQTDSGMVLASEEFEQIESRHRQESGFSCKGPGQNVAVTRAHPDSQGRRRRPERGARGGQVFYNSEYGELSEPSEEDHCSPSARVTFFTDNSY
Cyclin-dependent kinase 5/CDK5 activator 1 (Homo sapiens), sequence (Q00535 whole entry): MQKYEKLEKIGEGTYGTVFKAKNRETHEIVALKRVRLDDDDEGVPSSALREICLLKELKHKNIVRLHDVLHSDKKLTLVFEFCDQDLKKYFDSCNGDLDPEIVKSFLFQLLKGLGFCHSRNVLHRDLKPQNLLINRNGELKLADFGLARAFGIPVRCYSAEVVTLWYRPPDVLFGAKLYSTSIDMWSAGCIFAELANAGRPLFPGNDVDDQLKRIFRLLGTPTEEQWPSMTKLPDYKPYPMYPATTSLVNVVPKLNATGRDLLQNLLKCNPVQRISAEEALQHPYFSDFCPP
Cyclin-dependent kinase 5/CDK5 activator 1 (Homo sapiens), sequence (Q15078 99-307 partner limits assumed): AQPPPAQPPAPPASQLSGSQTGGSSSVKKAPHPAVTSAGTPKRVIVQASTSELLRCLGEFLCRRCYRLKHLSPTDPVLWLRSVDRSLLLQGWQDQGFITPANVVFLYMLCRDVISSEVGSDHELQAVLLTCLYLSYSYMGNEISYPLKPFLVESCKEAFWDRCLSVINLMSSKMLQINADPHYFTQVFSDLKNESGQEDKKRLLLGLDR
CYP1A2, sequence (P05177 whole entry): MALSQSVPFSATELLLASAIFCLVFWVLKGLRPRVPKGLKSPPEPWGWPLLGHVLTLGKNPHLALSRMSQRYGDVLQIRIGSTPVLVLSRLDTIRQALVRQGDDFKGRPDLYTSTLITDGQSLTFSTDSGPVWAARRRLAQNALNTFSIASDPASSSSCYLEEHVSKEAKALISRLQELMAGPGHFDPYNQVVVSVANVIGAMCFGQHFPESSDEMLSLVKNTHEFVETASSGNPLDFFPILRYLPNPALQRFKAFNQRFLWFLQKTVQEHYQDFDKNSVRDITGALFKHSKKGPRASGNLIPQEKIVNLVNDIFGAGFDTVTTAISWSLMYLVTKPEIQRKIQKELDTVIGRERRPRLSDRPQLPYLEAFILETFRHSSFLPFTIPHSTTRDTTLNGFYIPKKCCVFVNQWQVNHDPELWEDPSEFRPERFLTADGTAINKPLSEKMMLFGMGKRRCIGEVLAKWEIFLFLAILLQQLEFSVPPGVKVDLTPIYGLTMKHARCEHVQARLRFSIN

## Cc1cc(=O)n(-c2cc(Cl)ccc2F)nc1C(=O)Nc1ccc(Oc2ccnc(NC(=O)N3CC(O)C3)c2)c(F)c1
MOLM-13 [1]
  Activity: 40.5%
MOLM-13 [2]
  Activity: 75.8%
[3]
  Papp at 4 h: 0.86 ×10⁻⁶ cm/s
[4]
  AUC(0-inf): 1430 ng·h/mL
[5]
  AUC(0-t): 2030 ng·h/mL
[6]
  Activity: 88%
Jurkat
  IC50: > 30000 nM
[7]
  clearance: 38.8 mL/min/kg
CYP2C9
  inhibition at 10 min, 10 µM: 25.6%
MOLM-13 [8]
  inhibition: Dose-dependent-effect
[9]
  IC50: 131 nM
[10]
  inhibition: 100%
MOLM-13 [11]
  Activity: 3.37%
[12]
  MRT last: 3.37 h
MOLM-13 [13]
  Activity: Dose-dependent-effect
MOLM-13 [14]
  Activity: 0.74%
MOLM-13 [15]
  Activity: 0%
[16]
  Activity: 88%
BaF3
  IC50: 310 nM
MOLM-13 [17]
  Activity: 8.51%
MOLM-13 [18]
  Activity: 78.2%
MOLM-13 [19]
  Activity: 12.3%
[20]
  MRT last: 7.17 h
MOLM-13 [21]
  Activity: 13.4%
[22]
  IC50: 475 nM
CYP1A2
  inhibition at 10 min, 10 µM: 9.5%
[23]
  IC50: 153 nM
[24]
  IC50 at 3 days: > 30000 nM
[25]
  microsomal CLint at 1 µM: 11.8 µL/min/mg
MOLM-13 [26]
  viability at 1 µM: 33.5%
[27]
  IC50: 166 nM
MOLM-13 [28]
  Activity: 36.2%
[29]
  remaining at 1 h, 1 µM: 103%
MOLM-14
  IC50: 510 nM
[30]
  Activity: 88%
[31]
  bioavailability: 32.4%
